Our source for the TGI values is PubChem BioAssay (NCI).

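Five compound concentrations were applied to cells in 96-well plates for 48 hours; endpoints were derived by simple linear interpolation of the resulting dose-response curve. TGI is the concentration that stops growth completely.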

Among the test systems are A498 renal; CAKI-1 renal; CCRF-CEM leukemia; COLO 205 colon; HCC-2998 colon; HL-60(TB) leukemia; HOP-62 NSCLC; M14 melanoma; MOLT-4 leukemia; OVCAR-3 ovarian; OVCAR-8 ovarian; RPMI-8226 leukemia; SF-268 CNS; SK-MEL-2 melanoma; SK-MEL-5 melanoma; SK-OV-3 ovarian; SN12C renal; UO-31 renal; DU-145 prostate.
Common to all, as to experiment: growth of human tumour cells (NCI), 48 h

In the case of `c1ccc2c3c([nH]c2c1)C1(CCCCC1)c1c([nH]c2ccccc12)C31CCCCC1`, the TGI is 54 µM in the assay with A498 renal; above 100 µM in the assay on CAKI-1 renal; above 100 µM with CCRF-CEM leukemia; above 100 µM in the assay with COLO 205 colon; 85.6 µM in the assay on HCC-2998 colon; above 100 µM with HL-60(TB) leukemia. Also, the TGI in the assay with HOP-62 NSCLC was 54.8 µM; with M14 melanoma, above 100 µM; in the assay with MOLT-4 leukemia, above 100 µM; with OVCAR-3 ovarian, above 100 µM; in the assay with OVCAR-8 ovarian, 50.4 µM; with RPMI-8226 leukemia, above 100 µM. In addition, the TGI in the assay on SF-268 CNS is 95.4 µM; in the assay on SK-MEL-2 melanoma, 48.1 µM; in the assay with SK-MEL-5 melanoma, 85.2 µM; with SK-OV-3 ovarian, 49.6 µM; in the assay on SN12C renal it was above 100 µM; in the assay with UO-31 renal, above 100 µM.
As to `COc1ccc([C@H](NC(=O)c2ccccc2)[C@@H](O)C(=O)O[C@H]2C[C@@]3(O)C(OC(=O)c4ccccc4)C4[C@](C)(C(=O)[C@H](OC(C)=O)C(=C2C)C3(C)C)[C@@H](O)C[C@H]2OC[C@@]42OC(C)=O)cc1` (stereo partly drawn), the TGI in the assay with CAKI-1 renal was above 10 µM; in the assay with CCRF-CEM leukemia, above 10 µM; in the assay on COLO 205 colon it was 0.0123 µM; with DU-145 prostate, 0.00657 µM; with HCC-2998 colon, 0.091 µM; in the assay with HL-60(TB) leukemia, 0.0279 µM. For the same compound, the TGI is above 10 µM in the assay on M14 melanoma; above 5.11 µM with MOLT-4 leukemia; above 10 µM with OVCAR-8 ovarian; above 10 µM with RPMI-8226 leukemia; above 10 µM in the assay on SF-268 CNS; above 10 µM in the assay with SK-MEL-2 melanoma. Further, the TGI in the assay with SK-MEL-5 melanoma and with SN12C renal was above 10 µM throughout.
For the compound `CCCCc1ccc(Nc2nc(N)c3ncn(COCCO)c3n2)cc1`, the TGI is 88.7 µM with A498 renal; above 100 µM in the assay with CAKI-1 renal; above 100 µM in the assay on CCRF-CEM leukemia; 43.8 µM in the assay with COLO 205 colon; above 100 µM in the assay with DU-145 prostate; 48.9 µM with HCC-2998 colon. Further, the TGI in the assay on HL-60(TB) leukemia is above 100 µM; in the assay on HOP-62 NSCLC it was 45.1 µM; in the assay on M14 melanoma it was 45.3 µM; in the assay with MOLT-4 leukemia, above 100 µM; in the assay on OVCAR-3 ovarian it was 40.3 µM; in the assay with OVCAR-8 ovarian it was 92.6 µM. Also, the TGI in the assay on RPMI-8226 leukemia was 94.2 µM; with SF-268 CNS, above 100 µM; with SK-MEL-2 melanoma, 37.5 µM; in the assay on SK-MEL-5 melanoma, 32.7 µM; in the assay on SK-OV-3 ovarian, 26.9 µM; with SN12C renal, above 100 µM. This compound also yielded a TGI in the assay with UO-31 renal above 100 µM.
Take `CC1=NN(C(=O)c2ccc(Cl)cc2)C(=O)/C1=C/c1ccc(O)cc1`: the TGI in the assay with A498 renal, in the assay on CAKI-1 renal, in the assay on CCRF-CEM leukemia, in the assay with COLO 205 colon, in the assay on HCC-2998 colon and with HL-60(TB) leukemia was above 100 µM each time. For the same compound, the TGI with HOP-62 NSCLC, in the assay with M14 melanoma, in the assay on MOLT-4 leukemia, in the assay with OVCAR-3 ovarian, in the assay with OVCAR-8 ovarian and with RPMI-8226 leukemia was above 100 µM throughout. Further, the TGI in the assay on SF-268 CNS, with SK-MEL-2 melanoma, in the assay on SK-MEL-5 melanoma, in the assay with SK-OV-3 ovarian, in the assay on SN12C renal and with UO-31 renal was above 100 µM in each case.
On to `COc1ccc(NS(=O)c2ccc(OC)cc2)cc1` (stereo not drawn), for which the TGI with CAKI-1 renal, in the assay with CCRF-CEM leukemia, in the assay on COLO 205 colon, with DU-145 prostate, in the assay with HCC-2998 colon and in the assay on HL-60(TB) leukemia was above 100 µM in each case. Moreover, the TGI with HOP-62 NSCLC, in the assay with M14 melanoma, with MOLT-4 leukemia, with OVCAR-3 ovarian, in the assay on OVCAR-8 ovarian and with RPMI-8226 leukemia was above 100 µM in each case. The TGI in the assay on SF-268 CNS is 74.4 µM; in the assay on SK-MEL-2 melanoma, 83.6 µM; in the assay with SK-MEL-5 melanoma, above 100 µM; in the assay with SN12C renal it was above 100 µM; with UO-31 renal, 48.5 µM.
For `Cc1ccc(S(=O)(=O)c2c3[nH]c4ccccc4nc3n3c2nc2ccccc23)cc1`, the TGI in the assay on A498 renal, in the assay on CAKI-1 renal, with CCRF-CEM leukemia, with COLO 205 colon, in the assay on HCC-2998 colon and in the assay on HL-60(TB) leukemia was above 100 µM throughout. In addition, the TGI with HOP-62 NSCLC, in the assay with M14 melanoma, with MOLT-4 leukemia, in the assay with OVCAR-3 ovarian, in the assay with OVCAR-8 ovarian and with RPMI-8226 leukemia was above 100 µM each time. Also, the TGI in the assay on SF-268 CNS, in the assay with SK-MEL-2 melanoma, with SK-MEL-5 melanoma, in the assay with SK-OV-3 ovarian, with SN12C renal and in the assay on UO-31 renal was above 100 µM throughout.
Take `C/C(=N\NC(=S)NNC(=S)N(C)c1ccccc1)c1ccccn1`: the TGI with CAKI-1 renal was 8.39 µM; in the assay on COLO 205 colon, above 100 µM; in the assay on DU-145 prostate, above 100 µM; with HCC-2998 colon, above 100 µM; in the assay with HOP-62 NSCLC, above 100 µM; in the assay on M14 melanoma, 2.56 µM. The TGI in the assay with OVCAR-3 ovarian is above 100 µM; with OVCAR-8 ovarian it was above 100 µM; in the assay with RPMI-8226 leukemia, above 30.4 µM; with SF-268 CNS it was above 89 µM; in the assay on SK-MEL-2 melanoma, above 100 µM; in the assay with SK-OV-3 ovarian it was above 83.8 µM. Moreover, the TGI in the assay on SN12C renal worked out at 12.8 µM; in the assay on UO-31 renal, 7.59 µM.
For the compound `CCN(CC)c1cccc2c1C1(O)CCC3(CC21)OCCCCO3` (stereo not drawn), the TGI with A498 renal, in the assay on CAKI-1 renal, in the assay with CCRF-CEM leukemia, in the assay with COLO 205 colon, in the assay with HCC-2998 colon and with HL-60(TB) leukemia was above 100 µM in each case. Besides, the TGI with HOP-62 NSCLC, with M14 melanoma, with MOLT-4 leukemia, with OVCAR-3 ovarian, with OVCAR-8 ovarian and with RPMI-8226 leukemia was above 100 µM throughout. In addition, the TGI in the assay on SF-268 CNS, in the assay on SK-MEL-2 melanoma, with SK-MEL-5 melanoma, in the assay on SK-OV-3 ovarian, with SN12C renal and in the assay on UO-31 renal was above 100 µM in each case.
Turning to `COC1=CC(=O)[C@]2(C)[C@H](C1=O)C(C)[C@H]2c1ccccc1` (stereo partly drawn), the TGI in the assay on A498 renal, in the assay on CAKI-1 renal, in the assay with CCRF-CEM leukemia, with COLO 205 colon, in the assay on HCC-2998 colon and in the assay on HL-60(TB) leukemia was above 100 µM in each case. Moreover, the TGI with HOP-62 NSCLC, in the assay on M14 melanoma, with MOLT-4 leukemia, with OVCAR-3 ovarian, with OVCAR-8 ovarian and in the assay on RPMI-8226 leukemia was above 100 µM in each case. The TGI with SF-268 CNS, in the assay with SK-MEL-2 melanoma, in the assay on SK-MEL-5 melanoma, in the assay on SK-OV-3 ovarian and with UO-31 renal was above 100 µM in each case.
For `COc1ccc(/C(C)=N/NC(=O)c2ccncc2)cc1OC`, the TGI with A498 renal, with CAKI-1 renal, with CCRF-CEM leukemia, in the assay with COLO 205 colon, in the assay on DU-145 prostate and with HCC-2998 colon was above 10 µM throughout. Also, the TGI in the assay with HL-60(TB) leukemia, in the assay with HOP-62 NSCLC, in the assay with M14 melanoma, in the assay on MOLT-4 leukemia, with RPMI-8226 leukemia and in the assay on SF-268 CNS was above 10 µM throughout. Besides, the TGI with SK-MEL-5 melanoma, with SK-OV-3 ovarian, in the assay on SN12C renal and in the assay with UO-31 renal was above 10 µM throughout.
As for `O=C(CC(C(=O)c1cccs1)c1ccsc1)c1ccco1` (stereo not drawn), the TGI is 64 µM in the assay with A498 renal; 77.3 µM in the assay with CAKI-1 renal; 50.1 µM in the assay with CCRF-CEM leukemia; 95.5 µM in the assay on COLO 205 colon; above 100 µM with DU-145 prostate; above 100 µM with HCC-2998 colon. In addition, the TGI was 41.3 µM in the assay with HL-60(TB) leukemia; above 100 µM with HOP-62 NSCLC; 43.5 µM in the assay on M14 melanoma; above 100 µM in the assay with MOLT-4 leukemia; above 100 µM in the assay with OVCAR-3 ovarian; above 100 µM in the assay on OVCAR-8 ovarian. Moreover, the TGI in the assay with RPMI-8226 leukemia was above 100 µM; with SF-268 CNS, 74.2 µM; with SK-MEL-5 melanoma, above 100 µM; in the assay with SK-OV-3 ovarian, above 100 µM; with SN12C renal it was above 100 µM; in the assay with UO-31 renal, 59 µM.
Regarding `O=C(Cc1ccccc1)NNc1nc(NNC(=O)c2ccncc2)nc(Nc2ccc(Cl)cc2)n1`, the TGI in the assay on CAKI-1 renal, with CCRF-CEM leukemia, with COLO 205 colon, in the assay with DU-145 prostate, with HCC-2998 colon and with HL-60(TB) leukemia was above 10 µM in each case. For the same compound, the TGI in the assay with HOP-62 NSCLC, with M14 melanoma, in the assay with MOLT-4 leukemia, in the assay on OVCAR-8 ovarian, in the assay with RPMI-8226 leukemia and in the assay with SF-268 CNS was above 10 µM each time. Also, the TGI in the assay on SK-MEL-5 melanoma, in the assay with SK-OV-3 ovarian, in the assay with SN12C renal and in the assay on UO-31 renal was above 10 µM throughout.
